The results in this text go back to the SangsterLogP compilation.

This series is described as follows: method code SF-AS, from PMID: 4480356.
Regarding `O=C(O)c1ccccc1C(c1ccc(O)cc1)c1ccc(O)cc1`, the logP worked out at 2.61. The result for `Cc1cnc(Cc2ccc(O)cc2)s1` reads 2.62; that for `Oc1ccc(Cc2ccc(O)cc2)cc1`, 2.91; that for `OCc1ccccc1C(c1ccc(O)cc1)c1ccc(O)cc1`, 3.27. The result for `Nc1ccccc1C(c1ccc(O)cc1)c1ccc(O)cc1` reads 3.16; that for `Oc1ccc(C(c2ccc(O)cc2)c2ccccn2)cc1`, 2.84. The result for `Oc1ccc(C(c2ccc(O)cc2)c2nccs2)cc1` reads 2.96; that for `Oc1ccc(C(c2ccncc2)c2ccc(O)cc2)cc1`, 3.24; that for `Oc1ccc(C(c2ccc(O)cc2)c2cccnc2)cc1`, 3.13.

In turn, `Cc1cnc(C(c2ccc(O)cc2)c2ccc(O)cc2)s1` came in with a logP of 3.34.

Broadly, the logP is the decadic logarithm of the partition coefficient of the neutral form, usually between octanol and water. High values mean higher lipophilicity, low ones lower lipophilicity.
